Test results taken from article PMC8304516, “A Fungal Defensin Targets the SARS−CoV−2 Spike Receptor−Binding Domain” (Journal of Fungi, 2021).
Bridge positions count the residues as written; N and C are the ends. Peptide text beside a SMILES is read from it.

Key:
SARS−CoV−2 Spike RBD = SARS−CoV−2 Spike RBD (Severe acute respiratory syndrome coronavirus 2, UniProt P0DTC2); assay: biochemical; format: binding; settings: KD; SD
Spike RBD (SARS-CoV-2) = Spike RBD (SARS-CoV-2) (UniProt P0DTC2); settings: cited from earlier work
RBD = settings: binding to RBD; cited from earlier work

CC[C@H](C)[C@@H]1NC(=O)[C@H](CO)NC(=O)[C@H](CC(C)C)NC(=O)[C@@H]2CSSC[C@@H](C(=O)NCC(=O)N[C@@H](CCCCN)C(=O)N[C@@H](CCC(N)=O)C(=O)O)NC(=O)[C@H]([C@@H](C)O)NC(=O)[C@@H]3CSSC[C@H](NC(=O)[C@H](CCC(=O)O)NC(=O)[C@H](CC(N)=O)NC(=O)[C@H](CCCCN)NC(=O)[C@H](CC(N)=O)NC(=O)[C@H](Cc4ccccc4)NC(=O)[C@@H]4CCCN4C(=O)[C@@H](NC(=O)CNC(=O)[C@H](Cc4ccccc4)NC(=O)CN)CSSC[C@H](NC(=O)[C@H](Cc4ccccc4)NC(=O)CNC(=O)[C@H](Cc4ccccc4)NC(=O)[C@H](CCCCN)NC(=O)[C@H](CCCNC(=N)N)NC(=O)CNC1=O)C(=O)N[C@@H](C)C(=O)NCC(=O)N1CCC[C@H]1C(=O)N[C@@H](CC(C)C)C(=O)N[C@@H](CCCNC(=N)N)C(=O)N[C@@H](C)C(=O)N[C@@H]([C@@H](C)O)C(=O)N3)C(=O)N[C@@H](Cc1c[nH]cn1)C(=O)N[C@@H](C)C(=O)N[C@@H](Cc1c[nH]cn1)C(=O)N2 [rE8K] (H-GFGCPFNKNECHAHCLSIGRKFGFCAGPLRATCTCGKQ-OH; disulfide 4-25, 11-33, 15-35)
Kd (SARS−CoV−2 Spike RBD): 1900 ± 570 nM

human beta-defensin 2 (from UniProt O15263)
Kd (Spike RBD (SARS-CoV-2)): 300 nM

human β−defensin 2 [hBD−2]
Kd (RBD): ~300 nM
